This note sets out measurements from ChEMBL document CHEMBL3045802, “Synthesis and in vitro antitumor activity of new quinoline, pyrimido[4,5-b]quinoline, [1,2,3]triazino[4,5-b]quinoline, and [1,2,4]triazolo[2,3:3,4]pyrimido[6,5-b]quinoline analogs” (2013).

Type in all cases: functional
Experiment [1] has as its system MOLT-4. Description: Cytotoxicity against Homo sapiens (human) MOLT4 cells assessed as growth inhibition at 10 uM after 48 hr by coulter counter analysis. Conditions: MOLT-4, 48 h, read-out: GI.
Experiment [2] concerns Hs-578T. Kind of experiment: Cytotoxicity against Homo sapiens (human) Hs578T cells assessed as growth inhibition at 10 uM after 48 hr by coulter counter analysis. The conditions noted are these: read-out: GI.
Experiment [3] has as its system MDA-MB-468. Kind of experiment: Cytotoxicity against Homo sapiens (human) MDA-MB-468 cells assessed as growth inhibition at 10 uM after 48 hr by coulter counter analysis. Conditions: MDA-MB-468, 48 h, read-out: GI.
Experiment [4] concerns 786-0. Description: Cytotoxicity against Homo sapiens (human) 786-0 cells assessed as growth inhibition at 10 uM after 48 hr by coulter counter analysis. The conditions noted are these: 786-0, 48 h, read-out: GI.
In experiment [5] the test system is MDA-MB-231. Description: Cytotoxicity against Homo sapiens (human) MDA-MB-231 cells assessed as growth inhibition at 10 uM after 48 hr by coulter counter analysis. Conditions: MDA-MB-231, 48 h, read-out: GI.
Experiment [6] deals with UO-31. Description: Cytotoxicity against Homo sapiens (human) UO31 cells assessed as growth inhibition at 10 uM after 48 hr by coulter counter analysis. Conditions: UO-31, 48 h, read-out: GI.
For experiment [7], the system named is SK-OV-3. Kind of experiment: Cytotoxicity against Homo sapiens (human) SKOV3 cells assessed as growth inhibition at 10 uM after 48 hr by coulter counter analysis. The conditions noted are these: SK-OV-3, 48 h, read-out: GI.
Experiment [8] relates to CAKI-1. Kind of experiment: Cytotoxicity against Homo sapiens (human) Caki1 cells assessed as growth inhibition at 10 uM after 48 hr by coulter counter analysis. The conditions noted are these: CAKI-1, 48 h, read-out: GI.
The test system of experiment [9] is HCT-15. Description: Cytotoxicity against Homo sapiens (human) HCT15 cells assessed as growth inhibition at 10 uM after 48 hr by coulter counter analysis. Conditions: HCT-15, 48 h, read-out: GI.
Experiment [10] has as its system TK-10. Kind of experiment: Cytotoxicity against Homo sapiens (human) TK10 cells assessed as growth inhibition at 10 uM after 48 hr by coulter counter analysis. Conditions: TK-10, 48 h, read-out: GI.
Experiment [11] concerns UACC-62. Kind of experiment: Cytotoxicity against Homo sapiens (human) UACC62 cells assessed as growth inhibition at 10 uM after 48 hr by coulter counter analysis. The conditions noted are these: UACC-62, 48 h, read-out: GI.
Experiment [12] has as its system ACHN. Description: Cytotoxicity against Homo sapiens (human) ACHN cells assessed as growth inhibition at 10 uM after 48 hr by coulter counter analysis. Conditions: read-out: GI.
The subject of experiment [13] is LOX IMVI. Description: Cytotoxicity against Homo sapiens (human) LOXIMVI cells assessed as growth inhibition at 10 uM after 48 hr by coulter counter analysis. Conditions: read-out: GI.
The subject of experiment [14] is MCF7. Kind of experiment: Cytotoxicity against Homo sapiens (human) MCF7 cells assessed as growth inhibition at 10 uM after 48 hr by coulter counter analysis. Conditions: MCF7, 48 h, read-out: GI.
Experiment [15] relates to SNB-75. Description: Cytotoxicity against Homo sapiens (human) SNB75 cells assessed as growth inhibition at 10 uM after 48 hr by coulter counter analysis. The conditions noted are these: SNB-75, 48 h, read-out: GI.
Experiment [16] has as its system RXF 393. Description: Cytotoxicity against Homo sapiens (human) RXF393 cells assessed as growth inhibition at 10 uM after 48 hr by coulter counter analysis. Conditions: RXF 393, 48 h, read-out: GI.
The subject of experiment [17] is KM12. Kind of experiment: Cytotoxicity against Homo sapiens (human) KM12 cells assessed as growth inhibition at 10 uM after 48 hr by coulter counter analysis. Conditions: KM12, 48 h, read-out: GI.
For experiment [18], the system named is IGROV-1. Kind of experiment: Cytotoxicity against Homo sapiens (human) IGROV1 cells assessed as growth inhibition at 10 uM after 48 hr by coulter counter analysis. Conditions: IGROV-1, 48 h, read-out: GI.
Experiment [19] has as its system OVCAR-8. Kind of experiment: Cytotoxicity against Homo sapiens (human) OVCAR8 cells assessed as growth inhibition at 10 uM after 48 hr by coulter counter analysis. Conditions: OVCAR-8, 48 h, read-out: GI.
Experiment [20] deals with SF-295. Description: Cytotoxicity against Homo sapiens (human) SF295 cells assessed as growth inhibition at 10 uM after 48 hr by coulter counter analysis. The conditions noted are these: SF-295, 48 h, read-out: GI.
Experiment [21] has as its system SF-268. Description: Cytotoxicity against Homo sapiens (human) SF268 cells assessed as growth inhibition at 10 uM after 48 hr by coulter counter analysis. The conditions noted are these: SF-268, 48 h, read-out: GI.
Experiment [22] relates to PC-3. Kind of experiment: Cytotoxicity against Homo sapiens (human) PC3 cells assessed as growth inhibition at 10 uM after 48 hr by coulter counter analysis. The conditions noted are these: PC-3, 48 h, read-out: GI.
In experiment [23] the test system is M14. Description: Cytotoxicity against Homo sapiens (human) M14 cells assessed as growth inhibition at 10 uM after 48 hr by coulter counter analysis. The conditions noted are these: M14, 48 h, read-out: GI.
Experiment [24] concerns OVCAR-4. Description: Cytotoxicity against Homo sapiens (human) OVCAR4 cells assessed as growth inhibition at 10 uM after 48 hr by coulter counter analysis. The conditions noted are these: OVCAR-4, 48 h, read-out: GI.

Where only a bound is given, the exact number is not on record here.

Consider `COc1ccc(C2C3=C(CCCC3)Nc3nc(-c4ccccc4)[nH]c(=O)c32)cc1OC` (stereo not given), for which the inhibition of growth at 10 µM in experiment [1] was below 10%; in experiment [2], below 10%; in [3], 21.2%; in experiment [4] it was below 10%; in experiment [5], below 10%; in experiment [6] it was 48.6%. The inhibition of growth at 10 µM in experiment [7] is below 10%; in experiment [8], 23.4%; in experiment [9], below 10%; in [10], below 10%; in experiment [11], 14.4%; in experiment [12], 18%. Besides, the inhibition of growth at 10 µM in experiment [13] was below 10%; in experiment [14] it was below 10%; in [15], 28.4%; in experiment [16], 14.4%; in experiment [17] it was below 10%; in experiment [18], below 10%. Moreover, the inhibition of growth at 10 µM in experiment [19] was below 10%; in experiment [20], below 10%; in [21] it was below 10%; in experiment [22], 13.5%; in [23], below 10%; in experiment [24] it was below 10%.

For `COc1ccc(-c2nc3c(c(=O)[nH]2)C(c2ccc(OC)c(OC)c2)C2=C(CCCC2)N3)cc1OC` (stereo not given), the inhibition of growth at 10 µM in [1] is below 10%; in [2], below 10%; in experiment [3] it was 28.5%; in experiment [4] it was below 10%; in experiment [5], below 10%; in experiment [6] it was 66.3%. Besides, the inhibition of growth at 10 µM in [7] was below 10%; in experiment [8], 13.5%; in experiment [9] it was 10.7%; in [10] it was below 10%; in experiment [11], below 10%; in experiment [12] it was 28.8%. For the same compound, the inhibition of growth at 10 µM in [13] is 21.1%; in experiment [14], 34.3%; in experiment [15], 22.6%; in [16], 10.3%; in [17], below 10%; in [18], below 10%. Further, the inhibition of growth at 10 µM in experiment [19] was 12.1%; in [20], below 10%; in experiment [21], 12.2%; in experiment [22] it was 17.1%; in [23] it was below 10%; in experiment [24] it was 10.8%.

For the compound `Clc1ccc(C2C3=C(CCCC3)Nc3ncn4nc(-c5ccccc5)nc4c32)cc1` (stereo not given), the inhibition of growth at 10 µM in experiment [1] was 11%; in [2] it was below 10%; in [3] it was 23.1%; in [4], below 10%; in experiment [5], 11.1%; in experiment [6] it was 40%. For the same compound, the inhibition of growth at 10 µM in [7] is below 10%; in experiment [8], 12.4%; in experiment [9] it was 10.2%; in [10] it was below 10%; in experiment [11], 13.4%; in [12] it was below 10%. Moreover, the inhibition of growth at 10 µM in experiment [13] was 15.1%; in experiment [14], below 10%; in [15], 10.5%; in [16], below 10%; in experiment [17], below 10%; in experiment [18] it was below 10%. Further, the inhibition of growth at 10 µM in [19] was below 10%; in experiment [20], below 10%; in experiment [21], below 10%; in experiment [22], 19.7%; in experiment [23], below 10%; in experiment [24], below 10%.

On to `Oc1ccc(-c2nc3c4c(ncn3n2)NC2=C(CCCC2)C4c2ccc(Cl)cc2)cc1` (stereo not given), for which the inhibition of growth at 10 µM in [1] is below 10%; in experiment [2] it was 14.1%; in experiment [3], below 10%; in experiment [4], below 10%; in experiment [5] it was 20.5%; in experiment [6], 29%. The inhibition of growth at 10 µM in experiment [7] is below 10%; in [8] it was 24.6%; in experiment [9] it was below 10%; in experiment [10], below 10%; in experiment [11], 17.4%; in [12], below 10%. The inhibition of growth at 10 µM in [13] is 14.3%; in [14], below 10%; in experiment [15], 20.5%; in experiment [16], below 10%; in experiment [17], below 10%; in [18] it was below 10%. Also, the inhibition of growth at 10 µM is below 10% in [19]; below 10% in [20]; below 10% in experiment [21]; 10.4% in experiment [22]; below 10% in experiment [23]; below 10% in experiment [24].

`COc1ccc(C2C3=C(CCCC3)Nc3ncn4nc(-c5ccccc5)nc4c32)cc1OC` (stereo not given): the inhibition of growth at 10 µM in experiment [1] was 19.8%; in experiment [2], below 10%; in [3], 23.2%; in experiment [4] it was below 10%; in [5], 12.6%; in experiment [6], 38.7%. The inhibition of growth at 10 µM in experiment [7] was below 10%; in experiment [8] it was 13.1%; in [9] it was 13.1%; in [10] it was below 10%; in experiment [11], below 10%; in experiment [12], 20%. In addition, the inhibition of growth at 10 µM is below 10% in experiment [13]; below 10% in experiment [14]; below 10% in experiment [15]; 19.9% in [16]; below 10% in [17]; below 10% in [18]. Moreover, the inhibition of growth at 10 µM in experiment [19] is 14.7%; in experiment [20], 29.6%; in experiment [21] it was below 10%; in experiment [22], 19.8%; in experiment [23], below 10%; in [24], below 10%.
